Measurements as given in patent publication US20090012152A1, “Use of Tetramic Acid Derivatives for Controlling Insects from the Genus of the Plane Lice (Sternorrhyncha)” (Bayer CropScience Aktiengesellschaft, priority 2005, published 2009).

Legend:
Assay type in all cases: in vivo
[1] = test system: Psylla piri; test: Example 6: pear trees treated against Psylla piri; details: larvae on shoots, % a.i.: amitraz 0.05, I-9, I-2, I-1 0.096
Method: In three replications, in each case 4 about 4-year-old pear trees of the cultivar “Williams Christ” are treated against Psylla piri. Two applications are carried out at an interval of 11 days using a motor-operated barrow-mounted sprayer. Here, the active compounds Example (I-9) (240 SC), Example (I-2) (240 SC) and Example (I-1) (240 SC) are tested against the commercial standard Amitraz (200 EC) at the stated amounts. The application rate is 2000 l of water/ha.
Evaluation is carried out 3, 10 and 20 days after the last treatment by rating the kill of the larvae in percent on the shoots.

[2] = test system: Aonidiella aurantii; test: Example 16: grapefruit tree treated against Aonidiella aurantii; details: on fruits, per metre crown height: Dursban 6.01 pounds/acre, I-4 72 g/ha
Method: In four replications, an about 10-year-old grapefruit tree of the cultivar “Rio Red” is treated against Aonidiella aurantii. The application is carried out using a motor-operated barrow-mounted sprayer. Here, the active compound Example (I-4) (240 SC) and the commercial standard Dursban (480 EC) are tested at the stated application rates. The amount of spray liquor is 5.8 gallons per tree.
Evaluation is carried out 28, 59 and 90 days after the treatment by rating the kill of the animals on the fruits.

[3] = test system: Quadraspidiotus perniciosus; test: Example 17: apple trees treated against San Jose scale louse; details: 43 days after last of two treatments, on shoots, g a.i./ha/m crown height: Dursban 223, I-4 72
Method: In three replications, four about 18-year-old apple trees of the cultivar “Red Chief” are treated against the San Jose scale louse Quadraspidiotus perniciosus. Two applications are carried out at an interval of 15 days using a motor-operated barrow-mounted sprayer. Here, the active compound Example (I-4) (240 SC) is applied in a tank mix with 0.2% a.i. of rapeseed oil methyl ester (500 EW) at the stated application rate and the commercial standard Dursban (446 EC) is applied at the stated application rate. The application rate is 1500 l of water/ha.
Evaluation is carried out 43 days after the last treatment by rating the kill on the shoots.

[4] = test system: Lepidosaphes beckii; test: Example 18: citrus trees treated against Lepidosaphes beckii; details: 140 days after treatment, larvae on fruits, g a.i./ha/m crown height: pyriproxyfen 50, I-4 48
Method: In three replications, in plots of a size of about 20 m^2, citrus trees of the cultivar “Oro Nules” are treated against Lepidosaphes beckii. The application is carried out using a high-pressure sprayer. Here, the active compound Example (I-4) (240 SC) in a tank mix with 0.1% a.i. of rapeseed oil methyl ester (500 EW) is tested against the commercial standard pyriproxyfen (100 EC), at the stated application rates. The application rate is 2500 l of water/ha.
Evaluation is carried out 140 days after the treatment by rating the kill of the larvae on the fruits.

[5] = test system: Pseudaulacaspis pentagons; test: Example 22: peach trees treated against Pseudaulacaspis pentagons; details: crawlers on shoots, g a.i./ha/m crown height: Esteem 98, I-4 120
Method: In ten replications, on about 46 m^2, peach trees are treated against Pseudaulacaspis pentagons. Two applications are carried out at an interval of 57 days using a sprayer operated with pressurized air. Here, the active compound Example (I-4) (240 SC) in a tank mix with 0.2% of Dynamic (910 XL) is applied at the stated application rate and the commercial standard Esteem (35 WP) is applied at the stated application rate. The application rate is 935 l of water/ha.
Evaluation is carried out 35 and 79 days after the last treatment by rating the kill of the crawlers on the shoots.

[6] = test system: Nasonovia ribisnigri; test: Example 42: head lettuce treated against Nasonovia ribisnigri; details: on plants, g a.i./ha: Pirimor 150, I-4 48, I-8 42
Method: In four replications, plots of a size of 5 m^2 with head lettuce are, two weeks after transplantation, treated against Nasonovia ribisnigri. The application is carried out using a knapsack sprayer operated with pressurized air. Here, the active compounds Example (I-4) (240 SC) and Example (I-8) (240 SC) are, in a tank mix with 0.2% a.i. of rapeseed oil methyl ester (500 EW), tested against the commercial standard Pirimor, at the stated application rates. The application rate is 500 l of water/ha.
Evaluation is carried out 7, 14 and 26 days after the treatment by rating the kill of the animals on the plants.

[7] = test system: Myzus persicae; test: Example 48: aubergine plants treated against Myzus persicae; details: on leaves, rate (g of a.i./ha): pymethrozine 0.0125, I-4 0.024
Method: In three replications, four aubergine plants (age about 7 months) of the cultivar “Hayabusa” are treated against Myzus persicae. The application is carried out using a motor-operated knapsack sprayer. Here, the active compound Example (I-4) (240 SC), in a tank mix with 0.1% a.i. of rapeseed oil methyl ester (500 EW), and the commercial standard pymethrozine (25 WP) are tested at the stated application rates. The application rate is 3000 l of water/ha.
Evaluation is carried out 7, 14, 21 and 29 days after the treatment by rating the kill of the animals on the leaves.

[8] = test system: Myzus persicae; test: Example 50: tomatoes treated against Myzus persicae; details: nymphs on leaves, g a.i./ha: acetamiprid 50, I-9 36, I-4 48
Method: In two replications, plots of a size of about 43 m^2 with tomatoes of the cultivar “Yaqui” are treated against Myzus persicae. The application is carried out using a motor-operated knapsack sprayer. Here, the active compounds Example (I-9) (240 SC) and Example (I-4) (240 SC), in a tank mix with 0.1% a.i. of rapeseed oil methyl ester (500 EW), and the standard acetamiprid (20 WP) are applied at the stated application rates. The application rate is 208 l of water/ha.
Evaluation is carried out 3 and 10 days after the treatment by rating the kill of the nymphs on the leaves.

CCOC(=O)OC1=C(c2cc(C)ccc2Br)C(=O)NC12CCC(OC)CC2 (stereo not shown) [Example (I-2)]
Kill (%) 3 d ([1]; 3 d after last of two treatments): 96.7% | Kill (%) 10 d ([1]; 10 d after last of two treatments): 99% | Kill (%) 20 d ([1]; 20 d after last of two treatments): 97.9%

CCOC(=O)OC1=C(c2cc(C)ccc2C)C(=O)NC12CCC(OC)CC2 (stereo not shown) [Example (I-4)]
Kill (%) 28 d ([2]; 28 d after treatment): 92.7% | Kill (%) 59 d ([2]; 59 d after treatment): 100% | Kill (%) 90 d ([2]; 90 d after treatment): 100% | Kill (%) [3]: 90.4% | Kill (%) 140 days [4]: 100% | Kill (%) 35 d ([5]; 35 d after last of two treatments): 90% | Kill (%) 79 d ([5]; 79 d after last of two treatments): 87% | Kill (%) 7 d ([6]; 7 d after treatment): 92.3% | Kill (%) 14 d ([6]; 14 d after treatment): 95.7% | Kill (%) 26 d ([6]; 26 d after treatment): 95.1% | Kill (%) 7 d ([7]; 7 d after treatment): 99.7% | Kill (%) 14 d ([7]; 14 d after treatment): 99.7% | Kill (%) 21 d ([7]; 21 d after treatment): 98% | Kill (%) 29 d ([7]; 29 d after treatment): 97% | Kill (%) 3 d ([8]; 3 d after treatment): 92.6% | Kill (%) 10 d ([8]; 10 d after treatment): 95.9%
